Target: T1, BACE-1 enzyme (Homo sapiens, UniProt P56817)
T1 construct: purchased R & D Systems 931AS
Test: BACE Fluorescence Resonance Energy Transfer (FRET) Assay
Assay type: biochemical
Details: pH 4-4.5, 30 min pre-incubation, about 1.5 hours reaction, asterisk = mean
Protocol: BACE Fluorescence Resonance Energy Transfer (FRET) Assay
In the following assay, the proteolytic activity of BACE is measured by observing cleavage of a fluorescent group from a peptide substrate containing a rhodamine fluorescent donor and a quenching acceptor.
The inhibitory activity of compounds of Formula (I) may be compared to a statine derived control inhibitor STA200 (MP Biomedical Cat. #STA-200). The cleavage reaction occurs when a BACE-1 substrate (Invitrogen, Cat. #P2986) was added to a reaction mixture containing BACE-1 enzyme (R & D Systems, Cat. #931AS) and allowed to proceed for about 1.5 hours. Fluorescence, used as a marker of BACE activity, is monitored using 540 nm excitation and 585 nm emission wavelengths (Envision, Perkin Elmer).
A typical assay reaction contains BACE-1 enzyme-in assay buffer (50 mM sodium acetate, pH 4-4.5, 0.01% CHAPS (3-[(3-Cholamidopropyl)dimethylammonio]-1-propanesulfonate), 0.0125% TritonX-100, 0.006% EDTA) which is pre-incubated for 30 minutes with test compound in 7.5% DMSO. The reaction is initiated with the addition of BACE-1 substrate in assay buffer and allowed to proceed for about 1.5 hours at room temperature. Assays are conducted in black 384-well microtiter plates and scanned at room temperature using 540 nm excitation and 585 nm emission wavelengths.
In some instances, the percent inhibition at a given concentration is reported instead of the IC50.

T1 sequence (P56817 46-457 limits assumed): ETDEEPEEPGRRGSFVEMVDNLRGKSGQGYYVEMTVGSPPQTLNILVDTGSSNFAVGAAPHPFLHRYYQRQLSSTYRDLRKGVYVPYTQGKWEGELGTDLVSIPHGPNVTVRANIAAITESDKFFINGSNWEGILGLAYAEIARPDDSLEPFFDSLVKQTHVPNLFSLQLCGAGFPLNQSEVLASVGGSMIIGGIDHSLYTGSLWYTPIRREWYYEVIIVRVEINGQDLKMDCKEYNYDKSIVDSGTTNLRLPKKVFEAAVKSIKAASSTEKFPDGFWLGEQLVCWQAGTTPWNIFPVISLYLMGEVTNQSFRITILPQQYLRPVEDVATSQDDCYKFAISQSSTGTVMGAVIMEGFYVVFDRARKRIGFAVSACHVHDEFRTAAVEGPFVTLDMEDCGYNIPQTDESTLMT

IC50 [µM]	SMILES
0.241	CN(CCOc1ccc2nc(C(=O)Nc3nc4cc(-c5cccc(C(F)(F)F)c5)ccc4[nH]3)cn2n1)c1ccccn1 [Example 44]
0.334	C[C@@H](CO)Oc1ccc2nc(C(=O)Nc3nc4cc(-c5cccc(OC(F)(F)F)c5)ccc4[nH]3)cn2n1 [Example 103]
0.253	CC(C)NCCOc1ccc2nc(C(=O)Nc3nc4cc(-c5cccc(OC(F)(F)F)c5)ccc4[nH]3)cn2n1 [Example 28]
0.197	O=C(Nc1nc2cc(-c3cccc(C(F)(F)F)c3)ccc2[nH]1)c1cn2nc(OCCNC3CCCCC3)ccc2n1 [Example 39]
0.176	CN(C)CCOCCOc1ccc2nc(C(=O)Nc3nc4cc(-c5cccc(OC(F)(F)F)c5)ccc4[nH]3)cn2n1 [Example 56]
0.272	CN(C)CCOc1ccc2nc(C(=O)Nc3nc4cc(-c5cc(F)cc(Cl)c5)ccc4[nH]3)cn2n1 [Example 15]
0.368	CCOCCCOc1ccc2nc(C(=O)Nc3nc4cc(-c5cccc(C(F)(F)F)c5)ccc4[nH]3)cn2n1 [Example 13]
0.346	C[C@@H](N)COc1ccc2nc(C(=O)Nc3nc4cc(-c5cccc(C(F)(F)F)c5)ccc4[nH]3)cn2n1 [Example 73]
0.318	O=C(Nc1nc2cc(-c3cccc(OC(F)(F)F)c3)ccc2[nH]1)c1cn2nc(OCCN3CCCC3)ccc2n1 [Example 21]
0.27	CC(C)(C)NCCOc1ccc2nc(C(=O)Nc3nc4cc(-c5cccc(OC(F)(F)F)c5)ccc4[nH]3)cn2n1 [Example 30]
0.36	O=C(Nc1nc2cc(-c3cccc(C(F)(F)F)c3)ccc2[nH]1)c1cn2nc(O[C@H]3CCCNC3)ccc2n1 [Example 75]
0.335	COCCOc1ccc2nc(C(=O)Nc3nc4cc(-c5ccc(Cl)c(C(F)(F)F)c5)ccc4[nH]3)cn2n1 [Example 62]
0.14	NCCOc1ccc2nc(C(=O)Nc3nc4cc(-c5cccc(C(F)(F)F)c5)ccc4[nH]3)cn2n1 [Example 60]
0.291	CC(C)(C)NCCOc1ccc2nc(C(=O)Nc3nc4cc(-c5cccc(C(F)(F)F)c5)ccc4[nH]3)cn2n1 [Example 24]
0.249	CCOCCOc1ccc2nc(C(=O)Nc3nc4cc(-c5cccc(C(F)(F)F)c5)ccc4[nH]3)cn2n1 [Example 22]
0.327	O=C(Nc1nc2cc(-c3cccc(C(F)(F)F)c3)ccc2[nH]1)c1cn2nc(OCCN3CCCC3)ccc2n1 [Example 71]

IC50 [µM]	SMILES
0.322	CN(CCOc1ccc2nc(C(=O)Nc3nc4cc(-c5cccc(OC(F)(F)F)c5)ccc4[nH]3)cn2n1)c1ccccn1 [Example 37]
0.268	CN(C)CC(O)COc1ccc2nc(C(=O)Nc3nc4cc(-c5cccc(C(F)(F)F)c5)ccc4[nH]3)cn2n1 (centres unmarked) [Example 110]
0.216	CN(C)CCCOc1ccc2nc(C(=O)Nc3nc4cc(-c5cccc(C(F)(F)F)c5)ccc4[nH]3)cn2n1 [Example 72]
0.381	CNCCOc1ccc2nc(C(=O)Nc3nc4cc(-c5cccc(C(F)(F)F)c5)ccc4[nH]3)cn2n1 [Example 70]
0.23	N[C@@H]1CCN(c2ccc3nc(C(=O)Nc4nc5cc(-c6cccc(C(F)(F)F)c6)ccc5[nH]4)cn3n2)C1 [Example 76]
0.219	C[C@H](N)COc1ccc2nc(C(=O)Nc3nc4cc(-c5cccc(C(F)(F)F)c5)ccc4[nH]3)cn2n1 [Example 74]
0.32	CCOCCOCCOc1ccc2nc(C(=O)Nc3nc4cc(-c5cccc(C(F)(F)F)c5)ccc4[nH]3)cn2n1 [Example 11]
0.365	CC(C)N(CCOc1ccc2nc(C(=O)Nc3nc4cc(-c5cccc(C(F)(F)F)c5)ccc4[nH]3)cn2n1)C(C)C [Example 42]
0.27	CC(C)NCCOc1ccc2nc(C(=O)Nc3nc4cc(-c5cccc(C(F)(F)F)c5)ccc4[nH]3)cn2n1 [Example 38]
0.161	O=C(O)COc1ccc2nc(C(=O)Nc3nc4cc(-c5cccc(C(F)(F)F)c5)ccc4[nH]3)cn2n1 [Example 97]
0.171	CN(C)CCCOc1ccc2nc(C(=O)Nc3nc4cc(-c5cc(F)cc(Cl)c5)ccc4[nH]3)cn2n1 [Example 17]
0.194	CN(C)CCOCCOc1ccc2nc(C(=O)Nc3nc4cc(-c5cccc(C(F)(F)F)c5)ccc4[nH]3)cn2n1 [Example 59]
0.361	CN(C)CCOc1ccc2nc(C(=O)Nc3nc4cc(-c5ccc(Cl)c(C(F)(F)F)c5)ccc4[nH]3)cn2n1 [Example 63]
0.272	CC(C)OCCOc1ccc2nc(C(=O)Nc3nc4cc(-c5cccc(C(F)(F)F)c5)ccc4[nH]3)cn2n1 [Example 23]
0.332	CN(C)CCN(C)CCOc1ccc2nc(C(=O)Nc3nc4cc(-c5cccc(OC(F)(F)F)c5)ccc4[nH]3)cn2n1 [Example 36]
0.28	COCCOc1ccc2nc(C(=O)Nc3nc4cc(-c5cccc(C(F)(F)F)c5)ccc4[nH]3)cn2n1 [Example 8, 6-(2-Methoxy-ethoxy)-imidazo[1,2-b]pyridazine-2-carboxylic acid [5-(3-trifluoromethyl-phenyl)-1H-benzoimidazol-2-yl]-amide]

Further lines, the compound ahead of its results:

SMILES	IC50 [µM]
O=C(Nc1nc2cc(-c3cccc(C(F)(F)F)c3)ccc2[nH]1)c1cn2nc(N[C@H]3CCNC3)ccc2n1 [Example 78]	0.337
CO[C@@H]1CCN(c2ccc3nc(C(=O)Nc4nc5cc(C6CCC(C)(C)CC6)ccc5[nH]4)cn3n2)C1 [Example 89]	0.16
CC1(C)CCC(c2ccc3[nH]c(NC(=O)c4cn5nc(OC6CCC(O)CC6)ccc5n4)nc3c2)CC1 (centres unmarked) [Example 88]	0.476
O=C(Nc1nc2cc(-c3cc(F)cc(Cl)c3)ccc2[nH]1)c1cn2nc(OCC[C@@H](O)CO)ccc2n1 [Example 129]	0.293
CC1(C)CCC(c2ccc3[nH]c(NC(=O)c4cn5nc(C6CCNCC6)ccc5n4)nc3c2)CC1 [Example 82]	1.07
COC1CCN(c2ccc3nc(C(=O)Nc4nc5cc(C6CCC(C)(C)CC6)ccc5[nH]4)cn3n2)CC1 [Example 87]	0.56
CC(C)N(CCOc1ccc2nc(C(=O)Nc3nc4cc(-c5cc(F)cc(Cl)c5)ccc4[nH]3)cn2n1)C(C)C [Example 48]	0.315
O=C(Nc1nc2cc(-c3cccc(OC(F)(F)F)c3)ccc2[nH]1)c1cn2nc(OCCN3CCCCCC3)ccc2n1 [Example 34]	0.27
O=C(Nc1nc2cc(-c3cccc(C(F)(F)F)c3)ccc2[nH]1)c1cn2nc(N3CCOCC3)ccc2n1 [Example 65]	0.238
O=C(Nc1nc2cc(C3CCCC3)ccc2[nH]1)c1cn2nc(N3CC[C@@H](O)C3)ccc2n1 [Example 95]	0.431
COc1ccc2nc(C(=O)Nc3nc4cc(OCc5ccccc5)ccc4[nH]3)cn2n1 [Example 4]	0.105
O=C(O)CCNc1ccc2nc(C(=O)Nc3nc4cc(-c5cccc(Cl)c5)ccc4[nH]3)cn2n1 [Example 96]	0.328
CC(C)(C)NCCOc1ccc2nc(C(=O)Nc3nc4cc(-c5cc(F)cc(Cl)c5)ccc4[nH]3)cn2n1 [Example 52]	0.223
O=C(Nc1nc2cc(-c3cc(F)cc(Cl)c3)ccc2[nH]1)c1cn2nc(OCCN3CCCC3)ccc2n1 [Example 19]	0.166
CCC[C@H](O)COc1ccc2nc(C(=O)Nc3nc4cc(-c5cc(F)cc(Cl)c5)ccc4[nH]3)cn2n1 [Example 125]	1.18
N[C@H]1CCN(c2ccc3nc(C(=O)Nc4nc5cc(-c6cccc(C(F)(F)F)c6)ccc5[nH]4)cn3n2)C1 [Example 77]	0.242
O=C(Nc1nc2cc(-c3cccc(OC(F)(F)F)c3)ccc2[nH]1)c1cn2nc(OCCNC3CCCCC3)ccc2n1 [Example 33]	0.278
O=C(Nc1nc2cc(-c3cc(F)cc(Cl)c3)ccc2[nH]1)c1cn2nc(OC3CCOCC3)ccc2n1 [Example 16]	0.289
CO[C@@H]1CCN(c2ccc3nc(C(=O)Nc4nc5cc(-c6ccc(C)s6)ccc5[nH]4)cn3n2)C1 [Example 90]	1.38
CN1CCC[C@H]1COc1ccc2nc(C(=O)Nc3nc4cc(-c5cc(F)cc(Cl)c5)ccc4[nH]3)cn2n1 [Example 68]	0.344
O=C(Nc1nc2cc(-c3cc(F)cc(Cl)c3)ccc2[nH]1)c1cn2nc(OCCNC3CCCCC3)ccc2n1 [Example 51]	0.173
CC1CCC(c2ccc3[nH]c(NC(=O)c4cn5nc(N6CCOCC6)ccc5n4)nc3c2)CC1 (centres unmarked) [Example 81]	0.393
CCN(CC)CCCOc1ccc2nc(C(=O)Nc3nc4cc(-c5cc(F)cc(Cl)c5)ccc4[nH]3)cn2n1 [Example 20]	0.205
CNCCOc1ccc2nc(C(=O)Nc3nc4cc(-c5cc(F)cc(Cl)c5)ccc4[nH]3)cn2n1 [Example 14]	0.152
O=C(Nc1nc2cc(-c3cccc(C(F)(F)F)c3)ccc2[nH]1)c1cn2nc(N3CCNCC3)ccc2n1 [Example 80]	0.2
CN1CCC(Oc2ccc3nc(C(=O)Nc4nc5cc(-c6cc(F)cc(Cl)c6)ccc5[nH]4)cn3n2)CC1 [Example 18]	0.219
Cc1ccc2nc(C(=O)Nc3nc4cc(OCc5ccccc5)ccc4[nH]3)cn2n1 [Example 6]	0.244
CN1CCN(CCOc2ccc3nc(C(=O)Nc4nc5cc(-c6cc(F)cc(Cl)c6)ccc5[nH]4)cn3n2)CC1 [Example 55]	0.212
CO[C@H]1CCN(c2ccc3nc(C(=O)Nc4nc5cc(-c6ccc(C)s6)ccc5[nH]4)cn3n2)C1 [Example 91]	2.34
COc1ccc2nc(C(=O)Nc3nc4cc(OCc5ccc(C(F)(F)F)cc5)ccc4[nH]3)cn2n1 [Example 5]	0.095
